The record followed here is patent publication EP3797781A1, “USE OF EC-7072 AND SYNERGIC COMPOSITIONS THEREOF IN TREATMENT OF CHRONIC LYMPHOCYTIC LEUKEMIA” (priority 2019, dated 2021).

Common to all, as to format: cell-based, human
For one data set, the system named is active caspase-3. Description: Caspase-3 activity assay in leukemia cells (flow cytometry). The note with it: Z-VAD-fmk 0-100 µM pretreatment, then EC-7072 200 nM for 24 hours; n = 6. Here is the method: Intracellular levels of activated caspase-3 were measured by using CaspGLOW™ Fluorescein Active Caspase-3 Staining Kit (Invitrogen). In brief, EC-7072 (200 nM) or DMSO-treated PBMCs from patients with CLL were incubated with FITC-DEVD-fmk for 30 minutes at 37 °c and fluorescence was next analyzed by flow cytometry in leukemia cells. For some experiments, cells were pretreated for 2 hours with the indicated doses of the broad-spectrum caspase inhibitor Z-VAD-fmk.
The induction of caspase-dependent apoptosis on primary CLL cells by EC-7072 was assessed by: • (i) incubating PBMCs isolated from patients with CLL (n = 6) following treatment with increasing concentrations of EC-7072 (0 - 400 nM) for 24 hours. Apoptosis of leukemia cells was evaluated by cytofluorometric assessment of Annexin V/PI staining to obtain percentages of apoptotic [Annexin V^+ PI^-] and dead [PI^+] cells (Figure 3A); • (ii) incubating PBMCs and T cells isolated from patients with CLL (n = 3) following treatment with EC-7072 (200 nM) for 24 hours. T cell apoptosis was evaluated by cytofluorometric assessment of Annexin V/PI staining to obtain percentages of viable [Annexin V-], apoptotic [Annexin V^+ PI^-] and dead [PI^+] cells (Figure 3B); • (iii) incubating PBMCs isolated from patients with CLL (n = 6) following treatment with EC-7072 (0 - 400 nM) for 24 hours. […]
In general terms: In flow cytometry, cells or beads pass a laser one at a time.

The test system of a further data set is primary CLL cells. Description: Leukemia cell viability and apoptosis by DiOC6(3)/PI staining and flow cytometry. The note with it: Z-VAD-fmk 0-100 µM pretreatment, then EC-7072 200 nM for 24 hours; n = 6. Here is the method:
(§1) Cell viability and apoptosis were evaluated by double-staining with the mitochondrial inner transmembrane potential (ΔΨm)-sensitive dye DiOC6(3) (3,3'-dihexyloxacarbocyanine iodide; Sigma-Aldrich) and the exclusion dye propidium iodide (PI; Immunostep), allowing identification of apoptotic [DiOC6(3)^low PI^-] and dead [PI^+] cells as per Proc. Natl. Acad. Sci. U.S.A. (2014) 111(8):3020-3025 and Methods Mol. Biol. (2016) 1419:1-16. Briefly, PBMCs were resuspended in culture medium containing 20 nM DiOC6(3) and incubated for 30 minutes at 37 °C. Then, PI (1 µg/mL) was added and cells were further incubated for 10 minutes at room temperature (RT). Cells were analyzed by flow cytometry considering DiOC6(3)^+PI^- cells as viable. In some experiments, apoptosis was evaluated by staining with Annexin V/PI. Thus, PBMCs were incubated in Annexin V binding buffer containing 5 µg/mL Annexin V-FITC (Biolegend) for 15 minutes at RT and PI (1 µg/mL) was subsequently added. Data were normalized to the untreated control as a percentage. Only samples with at least 60% of viable cells (DiOC6(3)^+; Annexin V^-) in the control (DMSO) condition were employed in this study.
The in vitro cytotoxic activity of EC-7072 against primary CLL cells was assessed by: • (i) incubating PBMCs isolated from patients with CLL (n = 13) following treatment with increasing concentrations of EC-7072 (0 - 400 nM) for 24 hours. Numbers of leukemia cells were evaluated by flow cytometry and normalized to their respective control (DMSO) condition for each individual patient to obtain percentage of leukemia cells (Figure 1A); • (ii) incubating PBMCs from patients with CLL (n = 10) with or without EC-7072 (100-400 nM) for 24 hours. Viability of leukemia cells was determined by cytofluorometric assessment of DiOC6(3)/PI staining and normalized to their respective control condition to obtain percentage viability (Figure 1B); • (iii) incubating PBMCs from patients with CLL (n = 10) with increasing concentrations of EC-7072 (0 - 400 nM) for 24 hours. Apoptosis of leukemia cells was determined by DiOC6(3)/PI staining and flow cytometry to obtain the mean percentages of apoptotic [DiOC6(3)^low PI^-] and dead [PI^+] cells (Figure 1C); • (iv) incubating PBMCs from patients with CLL (n = 10) with or without EC-7072 (200 nM) for 12 to 72 hours. Viability of leukemia cells was determined by DiOC6(3)/PI staining and normalized to their respective control condition to obtain percentage viability (Figure 1D); • (v) incubating PBMCs from patients with CLL (n = 24) with MTA (200 nM) or EC-7072 (200 nM) for 24 hours. Leukemia cell death was determined by DiOC6(3)/PI staining and flow cytometry to obtain the mean percentages of apoptotic [DiOC6(3)^low PI^-] and dead [PI^+] cells (Figure 1E); • (vi) incubating PBMCs from patients with CLL (n = 63) or healthy donors (n = 20) with or without EC-7072 (200 nM) for 24 hours. Viability of leukemia cells and healthy B cells was evaluated by DiOC6(3)/PI staining and normalized to their respective control condition to obtain percentage viability (Figure 1F); • (vii) incubating PBMCs from patients with CLL (n = 62) following treatment with EC-7072 (200 nM) for 24 hours and obtaining a cytogenetic profile for each patient. Viability of leukemia cells was evaluated by DiOC6(3)/PI staining and normalized to their respective control (DMSO) condition for each individual patient to obtain the percentage of viable [DiOC6(3)^+] cells (Figure 1G); • (viii) incubating PBMCs from patients with CLL (n = 59) following treatment with EC-7072 (200 nM) for 24 hours and determining mutational status of IgHV for each patient. Viability of leukemia cells was evaluated by DiOC6(3)/PI staining and normalized to their respective control (DMSO) condition for each individual patient to obtain the percentage of viable [DiOC6(3)^+] cells (Figure 1H). […]

Data set [1] deals with primary fibroblasts from healthy donors. The data set is described as follows: Cell death of primary fibroblasts by PI staining. The conditions noted are these: 200 nM, 24 hours; n = 4. Here is the method:
(§2) Effectiveness of EC-7072 against different B-cell malignancies was assessed by; • (i) incubating primary fibroblasts from healthy donors (n = 4) and HK-2 cells from healthy human adult kidney (n = 3) following treatment with MTA (200 nM) or EC-7072 (200 nM) for 24 hours. Cell death was evaluated by PI staining to obtain the percentages corresponding to the [PI^+] subset (Figure 5A) and the mean percentage of [PI^+] cells (Figure 5B); • (ii) treating MEC-1, GRANTA-519, Z-138, JVM-2, CA-46, Ramos, Raji and U266 cell lines (n = 3) following treatment with EC-7072 (500 nM) followed by incubation for 24 hours. Cell viability was assessed by DiOC6(3)/PI staining and normalized to control (DMSO) condition to obtain mean percentage of viable [DiOC6(3)^+] cells (Figure 5C).

In another data set the test system is HK-2 cells. Description: Cell death of HK-2 cells by PI staining. The note with it: 200 nM, 24 hours; n = 3. Here is the method: as §2
A further data set deals with T cells (CD3^+CD56^-). Description: T cell numbers, viability and apoptosis in PBMCs (flow cytometry, DiOC6(3)/PI staining). The conditions noted are these: idelalisib 10 µM, 48 hours; PBMCs from patients with CLL (n = 6 - 8); Figure 4G. On the procedure:
(§3) To evaluate absolute cell numbers, an equal volume of PKH26 reference microbeads (Sigma-Aldrich) was added to each sample after staining for immune subset identification. Microbeads (5x10^3) were acquired by flow cytometry and absolute numbers of each immune population within the sample were calculated. Normalized percentage values were calculated considering the control (DMSO)-treated cells as 100%.
as §1
(§4) The effect of EC-7072 toward healthy immune subsets, T lymphocytes and natural killer (NK) cells, which are chronically exposed to leukemia cells in the peripheral blood of patients with CLL was assessed by: • (i) incubating PBMCs isolated from patients with CLL (n = 10) following treatment with increasing concentrations of EC-7072 (0 - 400 nM) for 24 hours. Numbers of T cells (CD3^+CD56^-) (Figure 2A) and NK cells (CD3^-CD56^+) (Figure 2B) were evaluated by flow cytometry and normalized to their respective control (DMSO) condition for each individual patient to obtain percentage of relative number of T cells and NK cells, respectively; • (ii) incubating PBMCs isolated from patients with CLL (n = 6 - 10) following treatment with increasing concentrations of EC-7072 (0 - 400 nM) for 24 hours. Viability of immune subsets (leukemia cells, T cells and NK cells) was determined by cytofluorometric assessment of DiOC6(3)/PI staining and normalized to their respective control (DMSO) condition for each individual patient to obtain percentage of viable [DiOC6(3)^+] cells (Figures 2C and 2D); • (iii) incubating PBMCs isolated from patients with CLL (n = 11) following treatment with DMSO or EC-7072 (200 nM) for 24 hours. Numbers of CD4^+ cells (Figure 2E) and CD8^+ T cells (Figure 2F) were evaluated by flow cytometry and normalized to their respective control (DMSO) condition for each individual experiment; • (iv) incubating PBMCs isolated from healthy donors (n = 15) following treatment with EC-7072 (200 nM) for 24 hours. […]

Another data set has as its system NK cells (CD3^-CD56^+). Description: NK cell numbers, viability and apoptosis in PBMCs (flow cytometry, DiOC6(3)/PI staining). The conditions noted are these: idelalisib 10 µM, 48 hours; PBMCs from patients with CLL (n = 6 - 8); Figure 4G. On the procedure:
as §3, §1, §4

For Z-VAD-fmk [reference compound], in the data set on active caspase-3, the “active caspase-3 levels on leukemia cells after Z-VAD-fmk pretreatment” value is on record as “decrease of active caspase-3 levels”. Besides, in the data set with primary CLL cells, the “death of primary CLL cells induced by EC-7072 after Z-VAD-fmk pretreatment” value is given as “completely abrogated the death”.
Turning to `COC(C(=O)C(O)C(C)O)C1Cc2cc3cc(OC4CC(OC5CC(O)C(O)C(C)O5)C(O)C(C)O4)c(C)c(O)c3c(O)c2C(=O)C1OC1CC(OC2CC(OC3CC(C)(O)C(O)C(C)O3)C(O)C(C)O2)C(O)C(C)O1` (stereo not drawn) [MTA, Mithramycin A, reference compound], the “viability of primary human fibroblasts (PI^+ cells)” value in data set [1] is “high toxicity”. Also, in the data set on HK-2 cells, the “viability of HK-2 cells (PI^+ cells)” value is given as “high toxicity”.
With `CC[C@H](Nc1ncnc2[nH]cnc12)c1nc2cccc(F)c2c(=O)n1-c1ccccc1` [Idelalisib, reference compound], the “viability of T cells” value in the data set with T cells (CD3^+CD56^-) is reported as “negligible effects”. Also, the “viability of NK cells” value in the data set on NK cells (CD3^-CD56^+) is given as “negligible effects”.
